# According to patent publication US20070098802A1, “Organic nanoparticles and associated methods” (priority 2005, published 2007):
# Assay: Nanoparticle size by light scattering and scanning electron microscopy
# Format: physicochemical
# Settings: 0.5% (w/v), 5 mg/ml glyburide in 70% ethanol and 30% chloroform by weight; water added until clouding
# Protocol: A 0.5% (w/v) mixture of 5 mg/ml of glyburide in 70% ethanol and 30% chloroform by weight is prepared. To this mixture, water is added until clouding is observed at which point the emulsion has formed. Light scattering and scanning electron microscopy show the resulting nanoparticle size is on average about 500 nm. A few large nanoparticles may be observed of up to 1 to 3 μm.
compound,measurement,value
COc1ccc(Cl)cc1C(=O)NCCc1ccc(S(=O)(=O)NC(=O)NC2CCCCC2)cc1 [glyburide],"resulting nanoparticle size, on average",about 500 nm
